Results on 17 molecules are retold here after ChEMBL document CHEMBL1128867, “Structure-based drug design of nonpeptidic P2 substituents for HIV-1 protease inhibitors” (Bioorg Med Chem Lett, 1995).

One series concerns CCRF-CEM. Kind of series: Inhibitory activity against CEM cells. The series is classed as functional, cell-based. As to conditions: Homo sapiens.
Series [1] concerns the target Human immunodeficiency virus type 1 protease (Human immunodeficiency virus 1, UniProt Q72874). Nature of the series: Inhibitory activity HIV-1 protease enzyme.
Series [2] can be described thus: Oral availability was tested for plasma levels at a dose of 40 mg/kg, after 6 hr of in fed fisher rats. The series is classed as ADME, organism-based. More on the design: dose 40 mg/kg. The following applies: Fischer, rat, read-out: Oral availability.
The target in series [3] is Human immunodeficiency virus type 1 protease (Human immunodeficiency virus 1) (UniProt Q72874). Nature of the series: Concentration required for the inhibition against HIV-protease enzyme at a dose of 40 mg/kg in fed fisher rats. Type of series: organism-based. More on the design: dose 40 mg/kg.

Values after ≈ are worked out from the molar mass of the structure shown.

One may read the IC50 as the point on the concentration scale where inhibition reaches its midpoint. For orientation: Ki means a measure of affinity in units of concentration, obtained from inhibition or displacement. Molecule `CC(C)(C)NC(=O)c1ccccc1C[C@@H](O)[C@H](CSc1ccc2ccccc2c1)NC(=O)c1cccc2c1CCN2` showed an IC50 with CCRF-CEM of over 50 µg/mL. The same molecule gave an inhibitory constant (Ki) in series [1] of 166 nM.
On the same counts, the results for `CC(C)(C)NC(=O)c1ccccc1C[C@@H](O)[C@H](CSc1ccc2ccccc2c1)NC(=O)c1cccc2c1CCNC2` are over 50 µg/mL and 180 nM.
In turn, `CC(C)(C)NC(=O)c1ccccc1C[C@@H](O)[C@H](CSc1ccc2ccccc2c1)NC(=O)c1cccc2c1CCCN2` came in with an IC50 in the series with CCRF-CEM of 1.9 µg/mL (≈ 3.27 µM). The molecule also had a Ki in series [1] of 24 nM.
Consider `CC(C)(C)NC(=O)c1ccccc1C[C@@H](O)[C@H](CSc1ccc2ccccc2c1)NC(=O)c1cccc(N)c1Cl`, for which the midpoint of inhibition with CCRF-CEM, the IC50, lay at 1.5 µg/mL (≈ 2.6 µM). For the same molecule, the Ki in series [1] is 16 nM.
`CC(C)(C)NC(=O)c1ccccc1C[C@@H](O)[C@H](CSc1ccc2ccccc2c1)NC(=O)c1cccc(O)c1Cl` came in with a Ki in series [1] of 15 nM.
Molecule `CC(C)(C)NC(=O)c1ccccc1C[C@@H](O)[C@H](CSc1ccc2ccccc2c1)NC(=O)c1cccc2[nH]ccc12` displayed an IC50 in the series with CCRF-CEM of 6.6 µg/mL (≈ 11.7 µM). This molecule also returned a Ki in series [1] of 164 nM.
In the series on CCRF-CEM, `Cc1c(N)cc(N)cc1C(=O)N[C@@H](CSc1ccc2ccccc2c1)[C@H](O)Cc1ccccc1C(=O)NC(C)(C)C` registered an IC50 of 0.46 µg/mL (≈ 0.806 µM). Moreover, in series [1], the Ki was found to be 5 nM.
For `Cc1c(C(=O)N[C@@H](CSc2ccc3ccccc3c2)[C@H](O)Cc2ccccc2C(=O)NC(C)(C)C)cccc1[N+](=O)[O-]` the same measures were over 50 µg/mL and 540 nM.
The molecule `Cc1ccc(N)cc1C(=O)N[C@@H](CSc1ccc2ccccc2c1)[C@H](O)Cc1ccccc1C(=O)NC(C)(C)C` had an IC50 in the series on CCRF-CEM of 1.3 µg/mL (≈ 2.34 µM). The affinity in series [1], expressed as Ki, was 17 nM.
For `CC(C)(C)NC(=O)c1ccccc1C[C@@H](O)[C@H](CSc1ccc2ccccc2c1)NC(=O)c1ccnc2ccccc12` the same measures were 5.6 µg/mL (≈ 9.69 µM) and 265 nM.
Molecule `CC(C)(C)NC(=O)c1ccccc1C[C@@H](O)[C@H](CSc1ccc2ccccc2c1)NC(=O)c1cccc2ncccc12` had an IC50 in the series on CCRF-CEM of 5.7 µg/mL (≈ 9.87 µM). In addition, in series [1], the affinity, expressed as Ki, was 113 nM.
On the same counts, the results for `Cc1c(O)cccc1C(=O)N[C@@H](CSc1ccc2ccccc2c1)[C@H](O)Cc1ccccc1C(=O)NC(C)(C)C` are 0.97 µg/mL (≈ 1.74 µM) and 3 nM.
On to `Cc1c(N)cccc1C(=O)N[C@@H](CSc1ccc2ccccc2c1)[C@H](O)Cc1ccccc1C(=O)NC(C)(C)C`, for which inhibition in the series with CCRF-CEM was half-maximal at 5 µg/mL (≈ 9 µM) (IC50). In series [1], this molecule yielded a Ki of 49 nM.
As for `CC(C)(C)NC(=O)c1ccccc1C[C@@H](O)[C@H](CSc1ccc2ccccc2c1)NC(=O)c1cccc(N)c1Br`, the IC50 in the series with CCRF-CEM stood at 1.6 µg/mL (≈ 2.58 µM). The same molecule returned a Ki in series [1] of 33 nM.
In the case of `Cc1ccc(O)cc1C(=O)N[C@@H](CSc1ccc2ccccc2c1)[C@H](O)Cc1ccccc1C(=O)NC(C)(C)C`, the Ki in series [1] was 500 nM. That is a sub-micromolar value.
In turn, `CC(C)(C)NC(=O)c1ccccc1C[C@@H](O)[C@H](CSc1ccc2ccccc2c1)NC(=O)c1cccc2cnccc12` returned an IC50 with CCRF-CEM of 16 µg/mL (≈ 27.7 µM). This molecule came in with a Ki in series [1] of 800 nM.
What is called IC90 is the point of the concentration-response curve where the effect stands at 90%. A higher IC90 goes with weaker potency. As for `Cc1c(O)cccc1C(=O)N[C@@H](Cc1ccccc1)[C@H](O)CN1C[C@H]2CCCC[C@H]2C[C@H]1C(=O)NC(C)(C)C`, the bioavailability in series [2] is 44%. In the series on CCRF-CEM, this molecule returned a 50% inhibitory concentration (IC50) of 0.01 µg/mL (≈ 0.0187 µM). In series [3], this molecule showed an IC90 of 0.03 µg/mL (≈ 0.056 µM). Also, the Ki in series [1] amounted to 21 nM.
